The values that follow come from ChEMBL document CHEMBL1128919, “Synthesis and characterization of cyclic ATP-ribose: a potent mediator of calcium release” (Bioorg Med Chem Lett, 1996).

The species entered for the experiment is Rattus norvegicus. Description: Half-maximal effective dose for inducing [Ca2+] release from rat brain microsomes. In kind it is functional.

The compound `N=c1c2ncn3c2ncn1[C@@H]1O[C@H](COP(=O)(O)OP(=O)(O)OP(=O)(O)OC[C@H]2O[C@@H]3[C@H](O)[C@@H]2O)[C@@H](O)[C@H]1O` displayed an ED50 of 0.8 µM.
